{"source": "paper PMC10708527", "about": "“Salazinic Acid and Norlobaridone from the Lichen Hypotrachyna cirrhata: Antioxidant Activity, α-Glucosidase Inhibitory and Molecular Docking Studies” (Molecules, 2023)", "biological_target": "T1, intestinal α-glucosidase", "T1 construct": "crude rat intestinal enzyme", "test": "crude enzyme inhibition, p-nitrophenyl-α-D-glucopyranoside hydrolysis at […] nm", "format": "biochemical, Rattus norvegicus"}
{"smiles": "C[C@H]1O[C@H](O[C@H]2[C@H](O)[C@@H](O)[C@@H](O[C@H]3[C@H](O)[C@@H](O)C(O)O[C@@H]3CO)O[C@@H]2CO)[C@H](O)[C@@H](O)[C@@H]1N[C@H]1C=C(CO)[C@@H](O)[C@H](O)[C@H]1O", "note": "(some centres unmarked) [acarbose, reference compound]", "values": [{"measurement": "Intestinal α-Glucosidase % Inhibition (IC50)", "value": "2.58 ± 0.85", "unit": "µg/mL"}]}
{"smiles": "Cc1cc(O)c(C=O)c2c1C(=O)Oc1c(CO)c(O)c3c(c1O2)C(O)OC3=O", "note": "(centres unmarked) [compound 11, salazinic acid]", "values": [{"measurement": "Intestinal α-Glucosidase % Inhibition (IC50)", "value": "1.62 ± 0.07", "unit": "µg/mL"}]}
{"smiles": "CCCCCc1cc(O)cc2c1Oc1cc(O)cc(C(=O)CCCC)c1C(=O)O2", "note": "[compound 12, norlobaridone]", "values": [{"measurement": "Intestinal α-Glucosidase % Inhibition (IC50)", "value": "1.41 ± 0.01", "unit": "µg/mL"}]}
{"smiles": "COC(=O)c1c(C)cc(OC(=O)c2c(C)cc(O)c(C=O)c2O)c(C)c1O", "note": "[compound 13, atranorin]", "values": [{"measurement": "Intestinal α-Glucosidase % Inhibition (IC50)", "value": "2.07 ± 0.01", "unit": "µg/mL"}]}
{"smiles": "COc1c(C)c(O)cc(C)c1C(=O)O", "note": "[compound 18, iso-rhizonic acid]", "values": [{"measurement": "Intestinal α-Glucosidase % Inhibition (IC50)", "value": "1.99 ± 0.03", "unit": "µg/mL"}]}
